Calls of active or inactive are those of the source. The rule behind the calls is not given here.
Key:
SW-620 [1] = experiment: Antitumor activity against human SW620 cells xenografted in Balb/c nude mouse model assessed as decrease in pro caspase 3 level at 15 mg/kg/day measured after 14 days by Western blot analysis; type: functional, organism-based; settings: time 14.0 day
SW-620 [2] = experiment: Antitumor activity against human SW620 cells xenografted in Balb/c nude mouse model assessed as reduction in tumor load at 15 mg/kg/day administered for 14 days in presence of AZD6738 by vernier caliper based analysis; type: functional, organism-based; settings: time 14.0 day
[3] = Toxicity in Balb/c nude mouse assessed as drug tolerance at 15 mg/kg/day administered for 14 days; type: organism-based; settings: in vivo, 336 h, time 14 day
K562 [4] = experiment: Potentiation of AZD6738 induced DNA damage in human K562 cells assessed as gamma-H2AX accumulation in nuclei at 5 uM incubated for 12 hrs by immunohistochemical staining based analysis; type: functional, cell-based
SW-620 [5] = experiment: Antitumor activity against human SW620 cells xenografted in Balb/c nude mouse model assessed as increase in gamma-H2AX at 15 mg/kg/day measured after 14 days by Western blot analysis; type: functional, organism-based; settings: time 14.0 day
A2780 = experiment: Cytotoxicity against human A2780 cells assessed as reduction in cell viability incubated for 48 hrs by MTT assay; settings: A2780, 48 h
SW-620 [6] = experiment: Antitumor activity against human SW620 cells xenografted in Balb/c nude mouse model assessed as reduction in tumor load at 15 mg/kg/day administered for 14 days by vernier caliper based analysis; type: functional, organism-based; settings: time 14.0 day
COLO 205 = experiment: Cytotoxicity against human COLO 205 cells assessed as reduction in cell viability incubated for 48 hrs by MTT assay; settings: COLO 205, 48 h
[7] = Downregulation of ATM level in human SW620 cells transfected with ATM shRNA by immunoblot analysis; type: functional, SW-620
SW-620 [8] = experiment: Downregulation of PROX1 level in human SW620 cells measured after 12 hrs by immunoblot analysis; type: functional, cell-based; settings: dose 1.25-10 µM
SW-620 [9] = experiment: Antitumor activity against human SW620 cells xenografted in Balb/c nude mouse model assessed as increase in gamma-H2AX level at 15 mg/kg/day measured after 14 days by Western blot analysis; type: functional, organism-based; settings: time 14.0 day
SW-620 [10] = experiment: Downregulation of BCL2 level in human SW620 cells at 1.25 to 10 uM measured after 12 hrs by immunoblot analysis; type: functional, cell-based; settings: dose 1.25-10 µM
K562 [11] = experiment: Downregulation of ATM level in human K562 cells at 20 uM by immunoblot analysis; type: functional, cell-based; settings: time <= 24.0 hrs, TDE = time-dependent effect
K562 [12] = experiment: Induction of DNA damage in human K562 cells assessed as accumulation of phosphorylated-chk2 (Thr68) at 20 uM by immunoblot analysis; type: functional, cell-based; settings: time <= 12.0 hrs, TDE = time-dependent effect
K562 [13] = experiment: Induction of DNA damage in human K562 cells assessed as accumulation of phosphorylated-chk2 (Thr68) measured after 8 hrs by immunoblot analysis; type: functional, cell-based
K562 [14] = experiment: Induction of DNA damage in human K562 cells assessed as gamma-H2AX accumulation at 20 uM incubated for 8 hrs by immunoblot analysis; type: functional, cell-based
SW480 [15] = experiment: Upregulation of cleaved caspase 3 level in human SW480 cells at 1.25 to 10 uM measured after 12 hrs by immunoblot analysis; type: functional, cell-based; settings: dose 1.25-10 µM
[16] = Toxicity in Balb/c nude mouse assessed as effect on body weight loss at 15 mg/kg/day administered for 14 days in presence of AZD6738 […]; type: organism-based; settings: in vivo, 336 h, time 14 day
SW-620 [17] = experiment: Upregulation of cleaved caspase 3 level in human SW620 cells at 1.25 to 10 uM measured after 12 hrs by immunoblot analysis; type: functional, cell-based; settings: dose 1.25-10 µM
SW-620 [18] = experiment: Downregulation of ATM level in human SW620 cells measured after 12 hrs by immunoblot analysis; type: functional, cell-based; settings: dose 2.5-10 µM
SW-620 [19] = experiment: Potentiation of AZD6738 induced DNA damage in human SW620 cells assessed as gamma-H2AX accumulation in nuclei at 5 uM incubated for 12 hrs by immunohistochemical staining based analysis; type: functional, cell-based
SW-620 [20] = experiment: Antitumor activity against human SW620 cells xenografted in Balb/c nude mouse model assessed as decrease in cleaved caspase 3 level at 15 mg/kg/day measured after 14 days by Western blot analysis; type: functional, organism-based; settings: time 14.0 day
K562 [21] = experiment: Upregulation of cleaved caspase 3 level in human K562 cells at 5 to 20 uM measured after 8 hrs by immunoblot analysis; type: functional, cell-based; settings: dose 5-20 µM
[22] = Downregulation of ATM level in human SW620 cells transfected with NC shRNA by immunoblot analysis; type: functional, SW-620
HCT-116 = experiment: Cytotoxicity against human HCT-116 cells transfected with NC shRNA assessed as reduction in cell viability measured after 48 hrs by MTT assay; settings: HCT-116, 48 h
K562 [23] = experiment: Downregulation of ATM level in human K562 cells measured after 8 hrs by immunoblot analysis; type: functional, cell-based; settings: dose 5-20 µM
SW-620 [24] = experiment: Downregulation of KDM4B level in human SW620 cells at 10 uM measured after 12 hrs in presence of tert-butyl ((S)-1-((2S,4R)-4-hydroxy-2-((4-(4-methylthiazol-5-yl)benzyl)carbamoyl)pyrrolidin-1-yl)-3,3-dimethyl-1-oxobutan-2-yl)carbamate by immunoblot analysis; type: functional, cell-based
SW480 [25] = experiment: Induction of apoptosis in human SW480 cells measured after 12 hrs by Annexin V-FITC/propidium iodide staining-based flow cytometric analysis; type: functional, cell-based; settings: dose 5-10 µM

With Cc1ncsc1-c1ccc(CNC(=O)[C@@H]2C[C@@H](O)CN2C(=O)[C@@H](NC(=O)CCCCCn2cc(CCCN3C(=O)/C(=C4/C(=O)Nc5ccccc54)c4ccccc43)nn2)C(C)(C)C)cc1 the Activity (SW-620 [1]) was “Active”, the Activity (SW-620 [2]) was “Active” and the Activity [3] was “Non-Toxic”. For the same compound, the Activity (K562 [4]) was “Active”, the Activity (SW-620 [5]) was “Active” and the IC50 (A2780) was 3.96 µM. The Activity (SW-620 [6]) was “Active”, the IC50 (COLO 205) was 5.11 µM and the Activity [7] was 25%. The Activity (SW-620 [8]) was “Dose-Dependent Effect”, the Activity (SW-620 [9]) was “Active” and the Activity (SW-620 [10]) was “Active”. For the same compound, the Activity (K562 [11]) was “Tde”, the Activity (K562 [12]) was “Tde” and the Activity (K562 [13]) was “Dose-Dependent Effect”. For the same compound, the Activity (K562 [14]) was “Active”, the Activity (SW480 [15]) was “Active” and the Activity [16] was “Non-Toxic”. For the same compound, the Activity (SW-620 [17]) was “Active”, the Activity (SW-620 [18]) was “Dose-Dependent Effect” and the Activity (SW-620 [19]) was “Active”. For the same compound, the Activity (SW-620 [20]) was “Active”, the Activity (K562 [21]) was “Active” and the Activity [22] was 100%. The IC50 (HCT-116) was 5.82 µM, the Activity (K562 [23]) was “Dose-Dependent Effect” and the Activity (SW-620 [24]) was “Active”. For the same compound, the Activity (SW480 [25]) was “Dose-Dependent Effect”.

— ChEMBL document CHEMBL5506015, “Discovery of a Meisoindigo-Derived PROTAC as the ATM Degrader: Revolutionizing Colorectal Cancer Therapy via Synthetic Lethality with ATR Inhibitors” (J Med Chem, 2024)
